What was measured:
Assay in all cases: Prostanoid receptor functional activity measured by FLIPR
Assay type in all cases: cell-based
Conditions in all cases: n = 6 (#1), n = 3 (#2)
hEP3 = target: T1, hEP3 (Homo sapiens, UniProt P43115)
T1 sequence (P43115 1-390): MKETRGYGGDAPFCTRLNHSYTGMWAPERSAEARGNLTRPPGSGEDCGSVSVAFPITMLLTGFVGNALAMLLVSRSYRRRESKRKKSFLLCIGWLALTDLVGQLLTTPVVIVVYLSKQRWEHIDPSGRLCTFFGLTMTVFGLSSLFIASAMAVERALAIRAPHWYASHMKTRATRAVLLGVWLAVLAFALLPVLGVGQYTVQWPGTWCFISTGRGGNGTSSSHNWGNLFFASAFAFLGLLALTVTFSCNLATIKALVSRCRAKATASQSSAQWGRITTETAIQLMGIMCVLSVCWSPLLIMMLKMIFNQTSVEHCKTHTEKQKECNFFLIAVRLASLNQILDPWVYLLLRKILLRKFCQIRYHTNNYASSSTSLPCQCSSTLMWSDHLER
Experimental: (§1) The above compounds are evaluated for their selectivity for various prostaglandin (PG) receptors. […] Thus, the method of the present invention may be carried out with EP3 and EP4 receptor agonists and/or prodrugs of EP3 and EP4 receptor agonists.

hFP = hFP (Homo sapiens, UniProt P43088)
Sequence of hFP (P43088 whole entry): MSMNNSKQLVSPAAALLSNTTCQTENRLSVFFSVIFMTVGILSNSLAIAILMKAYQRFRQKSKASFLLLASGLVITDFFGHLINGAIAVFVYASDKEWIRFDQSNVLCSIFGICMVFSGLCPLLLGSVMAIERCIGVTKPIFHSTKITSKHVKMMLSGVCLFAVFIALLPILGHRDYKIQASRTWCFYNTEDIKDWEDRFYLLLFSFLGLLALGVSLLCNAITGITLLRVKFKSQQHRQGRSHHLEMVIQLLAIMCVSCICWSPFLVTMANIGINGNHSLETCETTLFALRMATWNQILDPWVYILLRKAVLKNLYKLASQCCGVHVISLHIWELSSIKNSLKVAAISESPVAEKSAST
Experimental: as §1

hEP2 = hEP2 (Homo sapiens, UniProt P43116)
Sequence of hEP2 (P43116 whole entry): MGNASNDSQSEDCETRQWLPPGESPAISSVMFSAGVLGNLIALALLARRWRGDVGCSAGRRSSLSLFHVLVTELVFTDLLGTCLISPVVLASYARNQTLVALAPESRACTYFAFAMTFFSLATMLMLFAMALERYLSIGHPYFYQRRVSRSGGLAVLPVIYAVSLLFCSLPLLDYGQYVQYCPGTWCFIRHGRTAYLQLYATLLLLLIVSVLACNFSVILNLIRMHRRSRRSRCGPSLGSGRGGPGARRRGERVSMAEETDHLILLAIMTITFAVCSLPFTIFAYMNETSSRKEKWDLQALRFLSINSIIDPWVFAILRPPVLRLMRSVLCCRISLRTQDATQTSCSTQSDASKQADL
Experimental: as §1

hTP = target: T2, hTP (Homo sapiens, UniProt P21731)
T2 sequence (P21731 1-343): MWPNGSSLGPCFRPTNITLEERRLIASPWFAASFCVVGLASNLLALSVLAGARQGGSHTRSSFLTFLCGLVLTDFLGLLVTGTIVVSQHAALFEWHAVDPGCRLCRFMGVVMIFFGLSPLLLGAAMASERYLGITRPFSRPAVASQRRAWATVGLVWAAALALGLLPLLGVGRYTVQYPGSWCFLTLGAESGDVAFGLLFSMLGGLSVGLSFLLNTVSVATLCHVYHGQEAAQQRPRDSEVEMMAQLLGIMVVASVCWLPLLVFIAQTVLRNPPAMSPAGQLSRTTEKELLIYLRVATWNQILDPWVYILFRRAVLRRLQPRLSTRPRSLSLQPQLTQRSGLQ
Experimental: as §1

hDP = target: T3, hDP (Homo sapiens, UniProt Q13258)
T3 sequence (Q13258 1-359): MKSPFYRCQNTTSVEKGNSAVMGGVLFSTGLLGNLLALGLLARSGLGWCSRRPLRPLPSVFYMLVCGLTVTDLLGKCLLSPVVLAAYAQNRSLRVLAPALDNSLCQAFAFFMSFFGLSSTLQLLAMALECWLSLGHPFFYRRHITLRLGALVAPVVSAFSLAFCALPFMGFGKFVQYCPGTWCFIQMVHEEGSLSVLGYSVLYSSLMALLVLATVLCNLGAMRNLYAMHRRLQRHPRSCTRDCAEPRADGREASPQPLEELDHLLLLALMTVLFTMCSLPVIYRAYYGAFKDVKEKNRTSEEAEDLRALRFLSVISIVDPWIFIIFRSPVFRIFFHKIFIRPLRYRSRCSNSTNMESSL
Experimental: as §1

hEP1 = target: T4, hEP1 (Homo sapiens, UniProt P34995)
T4 sequence (P34995 1-402): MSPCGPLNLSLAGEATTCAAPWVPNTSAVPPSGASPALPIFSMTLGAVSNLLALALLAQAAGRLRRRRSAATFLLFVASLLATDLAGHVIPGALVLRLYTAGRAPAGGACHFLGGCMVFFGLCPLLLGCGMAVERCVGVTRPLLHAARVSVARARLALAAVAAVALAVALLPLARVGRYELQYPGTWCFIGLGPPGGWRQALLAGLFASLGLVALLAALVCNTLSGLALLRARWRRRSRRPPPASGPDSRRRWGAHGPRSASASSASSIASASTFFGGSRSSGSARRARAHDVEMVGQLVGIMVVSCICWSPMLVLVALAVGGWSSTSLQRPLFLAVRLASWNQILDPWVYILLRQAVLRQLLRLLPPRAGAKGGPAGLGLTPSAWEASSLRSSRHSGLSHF
Experimental: as §1

hIP = hIP (Homo sapiens, UniProt P43119)
Sequence of hIP (P43119 whole entry): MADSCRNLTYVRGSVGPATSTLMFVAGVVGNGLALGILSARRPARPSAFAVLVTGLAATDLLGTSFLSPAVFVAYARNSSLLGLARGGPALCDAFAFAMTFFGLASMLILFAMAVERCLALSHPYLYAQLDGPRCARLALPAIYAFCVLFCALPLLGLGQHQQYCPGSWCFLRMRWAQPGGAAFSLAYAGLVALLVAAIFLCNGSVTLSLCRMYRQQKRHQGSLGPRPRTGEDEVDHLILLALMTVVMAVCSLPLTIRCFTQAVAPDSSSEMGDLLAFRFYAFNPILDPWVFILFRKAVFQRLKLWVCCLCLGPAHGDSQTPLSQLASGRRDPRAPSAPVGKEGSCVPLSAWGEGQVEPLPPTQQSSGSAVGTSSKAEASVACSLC
Experimental: as §1

hEP4 = hEP4 (Homo sapiens, UniProt P35408)
Sequence of hEP4 (P35408 whole entry): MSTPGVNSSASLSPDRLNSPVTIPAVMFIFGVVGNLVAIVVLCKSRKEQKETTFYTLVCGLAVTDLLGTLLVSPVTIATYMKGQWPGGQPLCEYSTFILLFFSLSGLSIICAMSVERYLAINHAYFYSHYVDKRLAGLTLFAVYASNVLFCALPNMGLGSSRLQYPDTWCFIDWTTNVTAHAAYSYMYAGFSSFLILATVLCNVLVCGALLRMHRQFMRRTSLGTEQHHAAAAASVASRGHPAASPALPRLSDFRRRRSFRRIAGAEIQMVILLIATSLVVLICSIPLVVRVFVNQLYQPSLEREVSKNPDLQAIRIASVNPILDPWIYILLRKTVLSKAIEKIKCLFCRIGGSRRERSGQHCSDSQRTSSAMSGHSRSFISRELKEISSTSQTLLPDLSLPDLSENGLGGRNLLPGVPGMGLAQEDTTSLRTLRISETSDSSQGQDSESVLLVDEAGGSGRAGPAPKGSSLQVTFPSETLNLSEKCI
Experimental: as §1

SMILES	EC50 (hEP3) [nM]	EC50 (hFP) [nM]	EC50 (hEP2) [nM]	EC50 (hTP) [nM]	EC50 (hDP) [nM]	EC50 (hEP1) [nM]	EC50 (hIP) [nM]	EC50 (hEP4) [nM]
CCCCC[C@H](O)/C=C/[C@H]1[C@H](O)CC(=O)[C@@H]1SCCCSCC(=O)O [#1, {3-[(1R,2S,3R)-3-Hydroxy-2-((S)-(E)-3-hydroxyoct-1-enyl)-5-oxocyclopentyl-sulfanyl]propylsulfanyl}acetic acid]	36	> 10000	380	561	> 10000	304	> 10000	0.26
CCCCC[C@H](O)/C=C/[C@H]1[C@H](O)CC(=O)[C@@H]1SCCCSCC(=O)OC(C)C [#2, {3-[(1R,2S,3R)-3-Hydroxy-2-((S)-(E)-3-hydroxyoct-1-enyl)-5-oxocyclopentyl-sulfanyl]propylsulfanyl}acetic acid isopropyl ester]	44	> 10000	1110	3290	> 10000	2260	> 10000	2.55
